Experimental data: paper PMC9081605, “A High-Throughput Toxicity Screen of 42 Per- and Polyfluoroalkyl Substances (PFAS) and Functional Assessment of Migration and Gene Expression in Human Placental Trophoblast Cells” (Frontiers in Toxicology, 2022)

How the values were obtained:
JEG-3 cells [1] = assay: CellTiter-Glo luminescent cell viability assay (HTTS); format: cell-based, human; conditions: for Viability ↓, lowest concentration at which the mean response value exceeded the mean control value ± 2*SD (rough binning): decrease; for cell viability relative to vehicle control (rough binning): after 24 h, in at least one concentration
Procedure, shortened: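 JEG-3 cells (2,500/well) adhered overnight, then exposed 24 h to PFAS (methanol stocks; vehicle 2.5% methanol, top concentration 500 µM). Viability read by CellTiter-Glo ATP luminescence in the same wells as mitochondrial membrane potential; wells with 0 h confluence <20% or >80% excluded.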

JEG-3 cells [2] = assay: Proliferation, change in confluence 0-24 h (IncuCyte Zoom, HTTS); format: cell-based, human; conditions: for Prolif ↓, lowest concentration at which the mean response value exceeded the mean control value ± 2*SD (rough binning): decrease; for cellular proliferation relative to vehicle control (rough binning): after 24 h, in at least one concentration
Procedure, shortened: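 Confluence measured by automated image masking at 0 h and 24 h after dosing; proliferation = 24 h minus baseline confluence. JEG-3 seeded at 2,500 cells/well, ~30–50% baseline confluence, exposed 24 h to PFAS up to 500 µM in medium with 2.5% methanol vehicle; 37°C, 5% CO2.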

[3] = JEG-3 cells, 24 h exposure, four-parameter fit, estimates meeting inclusion criteria, read-out: Viability EC50 ± SD
[4] = JEG-3 cells, 24 h exposure, four-parameter fit, estimates meeting inclusion criteria, read-out: Proliferation EC50 ± SD
[5] = Homo sapiens, JEG-3, 24 h, read-out: Viability EC50 ± SD, JEG-3 cells, 24 h exposure, four-parameter fit, estimates meeting inclusion criteria
[6] = Homo sapiens, JEG-3, 24 h, read-out: Proliferation EC50 ± SD, JEG-3 cells, 24 h exposure, four-parameter fit, estimates meeting inclusion criteria

SMILES	Viability ↓, lowest concentration at which the mean response value exceeded the mean control value ± 2*SD (rough binning) (JEG-3 cells [1]; JEG-3 cells, 24 h)	EC50 (JEG-3 cells [1]; [3])	cell viability relative to vehicle control (rough binning) (JEG-3 cells [1])	Prolif ↓, lowest concentration at which the mean response value exceeded the mean control value ± 2*SD (rough binning) (JEG-3 cells [2]; JEG-3 cells, 24 h)	EC50 (JEG-3 cells [2]; [4])	cellular proliferation relative to vehicle control (rough binning) (JEG-3 cells [2])	EC50 (JEG-3 cells [1]; JEG-3 cells, 24 h exposure, four-parameter fit, estimates meeting inclusion criteria, listed as PFOS, read-out: Viability EC50 ± SD)	EC50 (JEG-3 cells [2]; JEG-3 cells, 24 h exposure, four-parameter fit, estimates meeting inclusion criteria, listed as PFOS, read-out: Proliferation EC50 ± SD)	EC50 (JEG-3 cells [1]; [5])	Viability ↑, lowest concentration at which the mean response value exceeded the mean control value ± 2*SD (rough binning) (JEG-3 cells [1]; JEG-3 cells, 24 h, increase)	minimal effective concentration (JEG-3 cells [2]; Homo sapiens, JEG-3, 24 h, read-out: Prolif ↓, lowest concentration at which the mean response value exceeded the mean control value ± 2*SD (rough binning))	EC50 (JEG-3 cells [2]; [6])	EC50 (JEG-3 cells [1]; Homo sapiens, JEG-3, 24 h, read-out: viability EC50 ± SE, JEG-3 cells, 24 h)	EC50 (JEG-3 cells [1]; read-out: Viability EC50 ± SD, JEG-3 cells, 24 h exposure, four-parameter fit, estimates meeting inclusion criteria)	EC50 (JEG-3 cells [2]; Homo sapiens, JEG-3, 24 h, read-out: proliferation EC50 ± SE, JEG-3 cells, 24 h)	Prolif ↑, lowest concentration at which the mean response value exceeded the mean control value ± 2*SD (rough binning) (JEG-3 cells [2]; JEG-3 cells, 24 h, increase)
O=C(O)C(F)(F)C(F)(F)C(F)(F)C(F)(F)C(F)(F)C(F)(F)C(F)(F)C(F)(F)F [Perfluorononanoic acid]	350 µM	333 ± 10.3 µM	reduced cell viability	300 µM	326 ± 5.5 µM	reduced cellular proliferation	–	–	–	–	–	–	–	–	–	–
O=S(=O)(O)C(F)(F)C(F)(F)C(F)(F)C(F)(F)C(F)(F)C(F)(F)C(F)(F)C(F)(F)F [Perfluorooctanesulfonic acid]	300 µM	291 ± 9.1 µM	reduced cell viability	250 µM	294 ± 5.8 µM	reduced cellular proliferation	291 µM	294 µM	–	–	–	–	–	–	–	–
O=C(O)C(F)(F)C(F)(F)C(F)(F)C(F)(F)C(F)(F)C(F)(F)C(F)(F)F [Perfluorooctanoic acid]	–	–	–	–	–	reduced cellular proliferation	–	–	358 ± 16.9 µM	200 µM	350 µM	344 ± 12.2 µM	–	–	–	–
NS(=O)(=O)C(F)(F)C(F)(F)C(F)(F)C(F)(F)C(F)(F)C(F)(F)C(F)(F)C(F)(F)F [Perfluorooctanesulfonamide]	–	–	–	–	–	–	–	–	175 ± 4.9 µM	–	–	160 ± 87.8 µM	176 ± 5 µM	176 ± 4.9 µM	160 ± 90 µM	–
N.O=C(O)C(F)(OC(F)(F)C(F)(F)C(F)(F)F)C(F)(F)F (stereo not shown) [Ammonium perfluoro-2-methyl-3-oxahexanoate]	350 µM	–	reduced cell viability	–	–	increased cellular proliferation	–	–	–	–	–	–	–	–	–	50 µM
